Measured values reported in patent US20130273567A1, “Screening Method for Candidate Agonist Compounds for Adiponectin Receptor I” (priority 2010, published 2013).
Each block holds one molecule with its values, some of them ahead of it.

Tests used:
muscle-R1KO mice [1] = assay: Treatment of muscle-R1KO mice with AICAR, resveratrol or MnTBAP; format: in vivo; settings: for citrate synthase activities in muscle / insulin resistance / mitochondrial content in muscle: AICAR 500, resveratrol 400, MnTBAP 10 mg per kg body weight per day
Procedure: Oral glucose tolerance test (OGTT) and insulin tolerance test (ITT) were conducted by the method described in the following documents (Nature Med. 8, 1288-1295 (2002); Nature Med. 7, 941-946 (2001)), with some modifications. The areas of the glucose and insulin curves were calculated, respectively, by multiplying the cumulative mean height of the glucose values (1 mg/ml=1 cm) and insulin values (1 ng/ml=1 cm) by time (60 min=1 cm) (Nature Med. 13, 332-339 (2007); Nature Med. 7, 941-946 (2001)). The insulin resistance index was calculated from the product of the areas of glucose and insulin×10^−2 in the glucose tolerance test. The results were expressed as the percentage of the value of control littermates.

PGC-1α = PGC-1α (Ppargc1a mRNA) expression in C2C12 myocytes; format: cell-based, mouse; settings: C2C12 myocytes preincubated with AraA 0.5 mM 1 hr, STO-609 1 μg/ml 6 hr or EGTA 5 mM 20 min, then adiponectin 10 μg/ml 1.5 hr
Procedure: Real-time PCR was carried out according to the method described in the following documents (Nature Med. 13, 332-339 2007); Nature 423, 762-769 (2003); J. Biol. Chem. 281, 8748-8755 (2006)). Total RNA was prepared from cells or tissues by using Trizol (Invitrogen) according to the manufacturer's instructions. Quantification of mRNA was conducted using a real-time PCR method (Nature 423, 762-769 (2003)) with slight modifications. The procedures used for immunoblotting are described in the following documents (Nature Med. 7, 941-946 (2001); J. Biol. Chem. 281, 26602-26614 (2006); J. Biol. Chem. 281, 8748-8755 (2006)). The livers or muscles were freeze-clamped in liquid nitrogen in situ (Nature Med. 7, 941-946 (2001); J. Biol. Chem. 281, 26602-26614 (2006); J. Biol. Chem. 281, 8748-8755 (2006)). The mouse C2C12 myoblasts were grown in 90% Dulbecco's modified high glucose Eagle's medium containing 10% (v/v) fetal bovine serum. When the cells reached 80% confluent, the myoblasts were induced to differentiate into myocytes by replacing the medium with a low serum differentiation medium (98% Dulbecco's modified high glucose Eagle's medium, 2.5% (v/v) horse serum). The medium was changed daily. The C2C12 cells were transfected by using Pofectamine 2000 (Invitrogen) and following the manufacturer's instructions.

C2C12 myocytes = assay: Mitochondrial content assay in C2C12 myocytes (mtDNA copy number, MitoTracker Green); format: cell-based, mouse; settings: C2C12 myocytes preincubated with AraA 0.5 mM 1 hr or STO-609 1 μg/ml 6 hr, then adiponectin 48 hr
Procedure: Mice used were from 8 to 10 week old at the time of the experiment. […] Induction of myogenic differentiation using C2C12 cells was carried out according to the method described in the following document (Nature Med. 8, 1288-1295 (2002)). By day 5, the cells had differentiated into multinucleated contracting myocytes. C2C12 myocytes were used after myogenic differentiation in all experiments.
(§1) The mouse C2C12 myoblasts were grown in 90% Dulbecco's modified high glucose Eagle's medium containing 10% (v/v) fetal bovine serum. When the cells reached 80% confluent, the myoblasts were induced to differentiate into myocytes by replacing the medium with a low serum differentiation medium (98% Dulbecco's modified high glucose Eagle's medium, 2.5% (v/v) horse serum). The medium was changed daily. The C2C12 cells were transfected by using Pofectamine 2000 (Invitrogen) and following the manufacturer's instructions.
(§2) Mitochondrial content assays were carried out as described in the following document (Cell Metab. 4, 75-87 (2006)), with slight modifications. Quantification of the mitochondrial content was conducted by using mtDNA and MitoTracker Green probe (Molecular Probes) according to the method as described in the following document (Obes. Res. 13, 574-581 (2005)). MitoTracker Green probe preferentially accumulates in mitochondria regardless of the mitochondrial membrane potential and provides an accurate assessment of mitochondrial mass. Cells were washed with PBS and after addition of 100 nM MitoTracker Green FM (Molecular Probes), incubated at 37° C. for 30 min. Cells were harvested by using trypsin/EDTA and resuspended in PBS. Fluorescence intensity was detected with excitation and emission wavelengths of 490 and 516 nm, respectively, and the values thus measured were corrected for total protein (mg/ml).

AMPK = AMPK phosphorylation in C2C12 myocytes (immunoblotting); format: cell-based, mouse; settings: for effect on adiponectin-induced increase in AMPK phosphorylation: C2C12 myocytes preincubated with 5 mM EGTA 20 min, 50 μM BAPTA-AM 30 min or 10 μM U73122 30 min, then adiponectin 30 μg/ml 5 min
Procedure: as §1

muscle-R1KO mice [2] = assay: Increased calcium influx experiment (Bay-K 8644 gelatin hydrogel) in muscle-R1KO mice; format: in vivo; settings: 0.25 μM Bay-K 8644
Procedure: as §2
Citrate synthase activity was determined from the homogeneates by using a spectrophotometer according to the method described in the following documents (Cell Metab. 4, 75-87 (2006); Eur. J. Biochem. 10, 198-206 (1969); Obes Res 13, 574-581 (2005)). The citrate synthase activity was measured at 37° C. in 0.1M Tris-HCl (pH 8.3) assay buffer containing 0.12 mM 5,5′-dithio-bis(2-nitrobenzoic acid) and 0.6 mM oxaloacetate. After recording of absorbance at 412 nm in the first two minutes, the reaction was started with the addition of 3 mM acetyl-CoA and a change in absorbance was measured every 10 sec for 7 min.
Hydrogels were prepared by crosslinking aqueous gelatin solutions with glutaraldehyde according to the method described in the following document (J. Control Release 64, 133-142 (2000)). For incorporating Bay-K 8644 into the resulting gelatin hydrogels, 20 μl of Bay-K 8644 (0.25 μM) was added dropwise onto 20 mg of freeze-dried hydrogel and left it overnight at 4° C. Under anesthesia, the gelatin hydrogel having Bay-K 8644 incorporated therein was implanted under the skin. Then, the skin was carefully sutured with No. 4-0 nylon monofilament.

mAdipoR1 = target: T1, mAdipoR1 (Mus musculus, UniProt Q91VH1); assay: Xenopus oocytes injected with AdipoR1 cRNA, two-electrode voltage clamp recording; format: cell-based; settings: Xenopus oocytes expressing AdipoR1, 5 mM EGTA
T1 construct: expressed in transfected cells; host or cells: Xenopus oocytes (stage V to VII) injected with cRNA
T1 sequence (Q91VH1 1-375): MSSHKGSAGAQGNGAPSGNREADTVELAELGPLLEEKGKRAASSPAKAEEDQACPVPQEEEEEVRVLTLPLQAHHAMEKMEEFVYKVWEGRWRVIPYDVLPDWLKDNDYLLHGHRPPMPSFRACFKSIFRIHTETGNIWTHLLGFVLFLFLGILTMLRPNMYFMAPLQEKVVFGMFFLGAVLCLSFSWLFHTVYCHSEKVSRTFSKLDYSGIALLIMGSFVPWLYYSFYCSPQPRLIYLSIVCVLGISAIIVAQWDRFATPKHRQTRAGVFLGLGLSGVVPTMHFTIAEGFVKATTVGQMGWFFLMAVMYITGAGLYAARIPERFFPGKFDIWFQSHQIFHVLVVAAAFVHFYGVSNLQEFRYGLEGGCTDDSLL
Procedure: Stage V to VII oocytes were treated with 2 mg/ml of collagenase S-1 (Nitta gelatin) in calcium ion-free saline solution (82.5 mM NaCl, 2 mM KCl, 1 mM MgCl2, and 5 mM HEPES, pH 7.5) for 1 to 2 hr at room temperature. The resulting oocytes were then microinjected with 50 ng of cRNA for mAdipoR1. The cRNA was synthesized from linearized modified pSPUTK. The injected oocytes were incubated for 3 days at 18° C. in a bath solution (88 mM NaCl, 1 mM KCl, 0.3 mM Ca(NO3)2, 0.4 mM CaCl2, 0.8 mM MgSO4, 2.4 mM NaHCO3, 15 mM HEPES, pH 7.6) supplemented with 10 μg/ml of penicillin and streptomycin.
Whole cell currents were recorded with a two-electrode voltage clamp technique. Intracellular glass electrodes were filled with 3M KCl. Signals were amplified with an OC-725C amplifier (Warner Instruments), low-pass filtered at 50 Hz, and digitized at 1 kHz. A control bath solution contained 115 mM NaCl, 2.5 mM KCl, 1.8 mM CaCl2, and 10 mM HEPES. It was titrated to pH 7.2 with NaOH. A calcium ion free solution containing 1.8 mM BaCl2 instead of CaCl2 was used. The inward current was monitored at a holding potential of −80 mV. Calcium ion activated Cl^− current was monitored by applying 500-mscc depolarizing pulses of +100 mV and +50 mV from the holding potential of −80 mV. Adiponectin was supplied to the superfusing bath solution via a silicon tube connected to computer-driven solenoid valves. Data acquisition and analysis were carried out using Digidata 1322A and pCLAMP software.

CaMKI, HDAC5 = assay: Phosphorylation of CaMKI and HDAC5 in C2C12 myocytes (immunoblotting); format: cell-based, mouse; settings: 5 mM EGTA
Procedure: as §1

AdipoR1 = target: T2, AdipoR1 (Mus musculus, UniProt Q91VH1); assay: Calcium imaging in C2C12 myocytes (fura-2); format: cell-based; parameters: endogenous in cells; host or cells: mouse C2C12 myocytes (differentiated from myoblasts)
T2 sequence (Q91VH1 1-375): T1 sequence (Q91VH1 1-375)
Procedure: C212 myocytes cultured on glass base dishes (IWAKI) were treated with 2.5 μM fura-2/AM for 30 min. Fluorescence was measured with an Aquacosmos Calcium Imaging system (Hamamatsu Photonics). Ligands were delivered through the superfusing Ringer's solution (140 mM NaCl, 5.6 mM KCl, 5 mM HEPES, 2.0 mM sodium pyruvate, 1.25 mM KH2PO4, 2.0 mM CaCl2, 2.0 mM MgCl2, 9.4 mM D-glucose (pH 7.4)). For the calcium chelating experiment, EGTA solution (140 mM NaCl, 5.6 mM KCl, 5 mM HEPES, 2.0 mM sodium pyruvate, 1.25 mM KH2PO4, 2.0 mM MgCl2, 5.0 mM EGTA-2Na, 9.4 mM D-glucose (pH 7.4) was used for the bath solution. Fura-2 fluorescence ratios were calibrated to calcium ion signals.

SMILES: NC(=O)c1ncn([C@@H]2O[C@H](CO)[C@@H](O)[C@H]2O)c1N [AICAR, 5-aminoimidazole-4-carboxamide-1-β-D-libocide]
citrate synthase activities in muscle (muscle-R1KO mice [1]; muscle-R1KO mice, 2 weeks): increased
insulin resistance (muscle-R1KO mice [1]; muscle-R1KO mice, 2 weeks): significantly ameliorated
mitochondrial content in muscle (muscle-R1KO mice [1]; muscle-R1KO mice, 2 weeks): increased
rescue of the AdipoR1 loss in muscle (muscle-R1KO mice [1]; muscle-R1KO mice, AICAR 500 mg per kg body weight per day, 2 weeks): significantly but partially rescued
phosphorylation of AMPK in muscle (muscle-R1KO mice [1]; muscle-R1KO mice, AICAR 500 mg per kg body weight per day, 2 hours): significantly increased

SMILES: Nc1ncnc2c1ncn2[C@@H]1O[C@H](CO)[C@@H](O)[C@@H]1O [AraA]
effect on PGC-1α expression induced by adiponectin (PGC-1α): only tended to decrease
effect on adiponectin-induced increase in mitochondrial biogenesis (C2C12 myocytes): almost completely abolished

SMILES: CC(=O)OCOC(=O)CN(CC(=O)OCOC(C)=O)c1ccccc1OCCOc1ccccc1N(CC(=O)OCOC(C)=O)CC(=O)OCOC(C)=O [BAPTA-AM, Bis-(o-aminophenoxy)ethane-N,N,N9,N9-tetra-acetic acid, tetraacetoxymethyl ester]
effect on adiponectin-induced increase in AMPK phosphorylation (AMPK): partially suppressed

SMILES: COC(=O)C1=C(C)NC(C)=C([N+](=O)[O-])C1c1ccccc1C(F)(F)F (stereo not shown) [Bay-K 8644]
CaMKKβ activity (phosphorylation of CaMKI) in skeletal muscle (muscle-R1KO mice [2]): increase
citrate synthase activities in muscle (muscle-R1KO mice [2]): significantly enhanced
insulin-stimulated phosphorylation of Akt in muscle (muscle-R1KO mice [2]): significantly enhanced
mitochondrial content in muscle (muscle-R1KO mice [2]): significantly enhanced

effect on adiponectin-induced inward current responses (mAdipoR1): almost completely abolishes
effect on calcium-ion activated Cl- current responses to adiponectin (mAdipoR1): almost completely abolished
effect on adiponectin-induced calcium ion response (AdipoR1; 5 mM EGTA (removal of extracellular free calcium ions)): almost completely abolished
effect on ATP-induced intracellular calcium ion release (AdipoR1; EGTA): had no effect
SMILES: O=C(O)CN(CCOCCOCCN(CC(=O)O)CC(=O)O)CC(=O)O [EGTA]
effect on PGC-1α expression induced by adiponectin (PGC-1α): effectively and almost completely abolished
effect on increased CaMKI phosphorylation stimulated with adiponectin (CaMKI, HDAC5): almost completely abolished
effect on adiponectin-induced increase in AMPK phosphorylation (AMPK): partially suppressed
effect on phosphorylation of AMPK induced by AICAR (AMPK; C2C12 myocytes, 5 mM EGTA, AICAR 1 mM 1 hr): had no effect
effect on ionomycin-dependent phosphorylation of AMPK (AMPK; C2C12 myocytes, 5 mM EGTA, ionomycin 1 μM): almost completely abolished

SMILES: O=C(O)c1ccc(/C2=C3\C=CC(=N3)/C(c3ccc(C(=O)O)cc3)=c3/cc/c4[n]3[Mn]([Cl])[n]3c2ccc3/C(c2ccc(C(=O)O)cc2)=C2/C=CC(=N2)\C=4c2ccc(C(=O)O)cc2)cc1 [MnTBAP]
ROS such as H2O2 in skeletal muscle (muscle-R1KO mice [1]; MnTBAP 10 mg per kg body weight per day, 2 weeks): significantly decreased
citrate synthase activities in muscle (muscle-R1KO mice [1]; muscle-R1KO mice, 2 weeks): failed to significantly increase
insulin resistance (muscle-R1KO mice [1]; muscle-R1KO mice, 2 weeks): tended to ameliorate
mitochondrial content in muscle (muscle-R1KO mice [1]; muscle-R1KO mice, 2 weeks): failed to significantly increase

SMILES: O=C(O)c1ccc2c3c1cccc3c(=O)n1c3ccccc3nc21 [STO-609]
effect on PGC-1α expression induced by adiponectin (PGC-1α): effectively and almost completely abolished
effect on adiponectin-induced increase in mitochondrial biogenesis (C2C12 myocytes): almost completely abolished

SMILES: COc1ccc2c(c1)CC[C@@H]1[C@@H]2CC[C@]2(C)[C@@H](NCCCCCCN3C(=O)C=CC3=O)CC[C@@H]12 [U73122]
effect on adiponectin-induced increase in AMPK phosphorylation (AMPK): had little effect

SMILES: Oc1ccc(C=Cc2cc(O)cc(O)c2)cc1 [resveratrol]
citrate synthase activities in muscle (muscle-R1KO mice [1]; muscle-R1KO mice, 2 weeks): increased
insulin resistance (muscle-R1KO mice [1]; muscle-R1KO mice, 2 weeks): significantly ameliorated
mitochondrial content in muscle (muscle-R1KO mice [1]; muscle-R1KO mice, 2 weeks): increased
